Experimental data published in BindingDB's records for doi:10.7270/Q2JM286J (Burnham Center For Chemical Genomics, 2012).

Target: Prothrombin (Bos taurus, UniProt P00735)
Test: thrombin protease inhibitors – biochemical, fluorescence polarization, uHTS hits, dose response (AID 602369)

`COc1cc(C=c2[nH]c3n(c2=O)CCCCC=3)ccc1O` [SMR000149996] and `COc1cc(C=CC(=O)C2C(=O)NC(=O)N(CCc3ccccc3)C2=O)ccc1O` (stereo not given) [SMR000221203] are within 1.5-fold of each other in IC50: 29.7 µM for the first, 40.6 µM for the second.

`CC(=O)C1C(=O)OC(=CC=Cc2ccccc2)C1=O` (stereo not given) [3-acetyl-5-cinnamylidene-4-hydroxy-2-furanone] and `Cc1[nH]n(-c2ccccc2)c(=O)c1C=C1NC(=S)NC1=O` [5-methyl-4-[(Z)-(5-oxo-2-sulfanylideneimidazolidin-4-ylidene)methyl]-2-phenyl-4H-pyrazol-3-one] are within 1.5-fold of each other in IC50: 50.4 µM for the first, 52.8 µM for the second.

Going from `COc1cc2c3c(c1)C(C)=CC(C)(C)N3C(=O)C2=O` [MLS000688351] to `COC1=CC(=Cc2c(C)[nH]n(-c3cccc(Br)c3)c2=O)C=C(OC)C1=O`, the IC50 rises from 11.4 µM to 39 µM (3.4-fold).

First: CC1=NC(=O)NC(c2ccc(N3CCOCC3)cc2)C1C(=O)c1ccccc1 (stereo not given) [5-benzoyl-6-methyl-4-[4-(4-morpholinyl)phenyl]-3,4-dihydro-1H-pyrimidin-2-one]
Second: Cc1[nH]c2ccccc2c1/C=C1\N=C(c2ccccc2)OC1=O [(4Z)-4-[(2-methyl-1H-indol-3-yl)methylidene]-2-phenyl-5-oxazolone]
The IC50 of the first is 2.1-fold higher: 15.5 µM for the first, 7.22 µM for the second. The second is the more potent here.

First: CC[n+]1c(CC=Nc2ccccc2)oc2ccc(OC)cc21
Second: CCOC(=O)C1C(=O)C(=Cc2ccc(-c3ccccc3C(=O)O)o2)SC1=Nc1ccc(OC)cc1 (stereo not given)
The IC50 of the first is 4.2-fold higher: 55.6 µM for the first, 13.1 µM for the second. The second is the more potent here.

Going from `C=c1[nH]c2ccc(C)cc2c1=Cc1c(N)n2oc(C)cc2nc1=O` [MLS000730959] to `C=c1[nH]n(-c2nnc(C)c(=O)[nH]2)c(=O)c1=Cc1ccc(N(CC)CC)cc1` [3-{4-[1-(4-Diethylamino-phenyl)-meth-(Z)-ylidene]-3-methyl-5-oxo-4,5-dihydro-pyrazol-1-yl}-6-methyl-4H -[1,2,4]triazin-5-one], the IC50 rises from 32.1 µM to 49.9 µM (1.6-fold). The first is the more potent here.

Going from `O=c1c(Cl)c(N=NCc2ccc(Br)cc2)cnn1-c1ccccc1` to `O=[N+]([O-])c1ccc(N=NCc2cccn2-c2ccccc2)nc1` [SMR000161089], the IC50 falls from over 100 µM to 29.5 µM. The second is the more potent here.

Compared with `C=C(C=C(C)c1sc(S)nc1O)c1sc(S)nc1O` [MLS000723803], `CC(c1sc(S)nc1O)c1sc(S)nc1O` [5-[1-(4-oxidanylidene-2-sulfanylidene-1,3-thiazolidin-5-yl)ethyl]-2-sulfanylidene-1,3-thiazolidin-4-one] is 1.7-fold lower in IC50: 87.5 µM for the first, 52.4 µM for the second. The second is the more potent here.

Going from `CCN(CC)CCOC(=O)c1ccc(N=CC(C#N)c2nc(-c3ccc4c(c3)OCO4)cs2)cc1` (stereo not given) [2-(diethylamino)ethyl 4-[[(Z)-2-[4-(1,3-benzodioxol-5-yl)-1,3-thiazol-2-yl]-2-cyano-ethenyl]amino]benzoate] to `CCN(CC)CCOC(=O)c1ccc(N=CC(C#N)c2nc(-c3ccc(OC)c(OC)c3)cs2)cc1` (stereo not given) [SMR000434079], the IC50 falls from 56.1 µM to 28.7 µM (2-fold).

Going from `O=C1C=CC([N+](=O)[O-])=CC1C=NN=C1NS(=O)(=O)c2ccccc21` (stereo not given) to `O=C(N/N=C/C1C=C([N+](=O)[O-])C=CC1=O)c1cc(-c2ccccc2)nc2ccccc12` (stereo not given) [N'-[(E)-(3-nitro-6-oxo-1-cyclohexa-2,4-dienylidene)methyl]-2-phenyl-4-quinolinecarbohydrazide], the IC50 falls from 36.8 µM to 10.7 µM (3.4-fold). The second is the more potent here.

Compared with `Cc1cc(=O)[nH]c(N=NCc2c(O)n(-c3ccccc3)c(=O)c3ccccc23)n1` [SMR000221270], `COC1=CC([N+](=O)[O-])=CC(/C=N/NC(=O)c2cc(-c3ccccc3)nc3ccccc23)C1=O` (stereo not given) is 2-fold higher in IC50: 37.2 µM for the first, 75.1 µM for the second.

Going from `CN(CCO)c1ccc(CN=Nc2ccc([N+](=O)[O-])cc2S(=O)(=O)Nc2ccccc2C(=O)O)cc1` to `O=[N+]([O-])c1ccc(N=NCc2c[nH]c3ccccc23)cc1` [MLS000573812], the IC50 falls from 36.4 µM to 2.05 µM (18-fold).

Compared with `COC1=CC([N+](=O)[O-])=CC(/C=N/NC(=O)c2cncc(Br)c2)C1=O` (stereo not given) [5-bromo-N'-[(E)-(5-methoxy-3-nitro-6-oxo-1-cyclohexa-2,4-dienylidene)methyl]-3-pyridinecarbohydrazide], `O=C(N/N=C/C1C=C(Cl)C=C([N+](=O)[O-])C1=O)c1ccccc1NS(=O)(=O)c1cccs1` (stereo not given) [SMR000364876] is 2.2-fold higher in IC50: 39.1 µM for the first, 85.5 µM for the second.

Compared with `CC1(C)CC(=O)C(=CNCC2CCN(C(=O)Cc3ccccc3)CC2)C(=O)C1` [5,5-dimethyl-2-[[[1-(2-phenylacetyl)piperidin-4-yl]methylamino]methylidene]cyclohexane-1,3-dione], `NS(=O)(=O)c1ccc(N=CCC(=O)c2ccc3ccccc3c2)cc1` [4-(3-Naphthalen-2-yl-3-oxo-propenylamino)-benzenesulfonamide] is lower in IC50: over 100 µM for the first, 56.5 µM for the second.

`Oc1csc(=S)n1N=Cc1ccc(Cl)s1` [3-[(5-chlorothiophen-2-yl)methylideneamino]-2-sulfanylidene-1,3-thiazolidin-4-one] and `CSc1nsc(CC=Nc2ccc(C(=O)O)cc2)c1C#N` [4-({2-[4-cyano-3-(methylsulfanyl)-5-isothiazolyl]vinyl}amino)benzenecarboxylic acid] are within 1.5-fold of each other in IC50: 27.1 µM for the first, 27.6 µM for the second.

Going from `C=CCN1C(=O)C(/C=N/c2cccc([N+](=O)[O-])c2)C(=O)N(CCCC)C1=O` (stereo not given) [MLS000543529] to `O=C1c2ccccc2SC1/C=N/c1cc([N+](=O)[O-])ccc1O` (stereo not given) [(2Z)-2-[[(5-nitro-2-oxidanyl-phenyl)amino]methylidene]-1-benzothiophen-3-one], the IC50 falls from 42.7 µM to 2.57 µM (17-fold). The second is the more potent here.

`CCCCCCCCCCCC1N=C(N)N=C(CCCO)C1C(=O)OC` (stereo not given) [SMR001565729] and `O=C1N=C(Nc2ccc(Cl)cc2Cl)SC1=Cc1c[nH]c2ccccc12` are within 1.5-fold of each other in IC50: 42.3 µM for the first, 38.3 µM for the second.

In the case of `O=[N+]([O-])c1ccc(N=NCc2ccc[nH]2)cc1` [MLS000595102], the IC50 is reported as 9.84 µM.
